From ChEMBL document CHEMBL5728229, “Halo-substituted piperidines as orexin receptor modulators” (2021)

Experiments:
[1] = target: T1, Orexin/Hypocretin receptor type 1 (Homo sapiens, UniProt O43613); test: (§1) Orexin Receptor Cell-Based Functional Assay: Measurement of [Ca2+]i using a FLIPR: CHO—OX1 or CHO—OX2 cells were seeded into black-walled clear-base 384-well plates (Corning, catalog #3712) at a density of 20,000 cells per well in F12-K medium supplemented with 10% FBS and then incubated in a 5% CO2, 37° C. incubator overnight to reach 90% confluency. The cells were incubated with equal volume of calcium 6 loading buffer (Molecular Devices, Inc.) containing 2.5 mM probenecid at 37° C. for 2 h, followed by test compounds (dose-range 0.1 nM-10 μM) for another 30 min. The plates were then placed into a FLIPR (Molecular Devices, Inc.) to monitor fluorescence (λ excitation 488 nm, λ emission 540 nm) before and after the addition of EC90 of [OX].
T1 sequence (O43613 whole entry): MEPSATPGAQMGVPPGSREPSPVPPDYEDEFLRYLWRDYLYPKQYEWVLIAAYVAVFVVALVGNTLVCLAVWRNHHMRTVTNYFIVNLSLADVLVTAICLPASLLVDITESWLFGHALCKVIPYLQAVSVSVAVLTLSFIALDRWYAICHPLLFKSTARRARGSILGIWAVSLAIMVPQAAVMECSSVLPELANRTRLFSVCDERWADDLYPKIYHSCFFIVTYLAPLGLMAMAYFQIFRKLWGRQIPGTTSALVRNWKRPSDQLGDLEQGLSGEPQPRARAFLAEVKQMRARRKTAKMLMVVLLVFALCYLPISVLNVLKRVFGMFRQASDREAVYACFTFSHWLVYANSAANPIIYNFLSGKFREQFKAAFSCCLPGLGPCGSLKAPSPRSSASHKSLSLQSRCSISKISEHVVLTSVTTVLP

[2] = target: T2, Orexin receptor type 2 (Homo sapiens, UniProt O43614); test: as §1
T2 sequence (O43614 whole entry): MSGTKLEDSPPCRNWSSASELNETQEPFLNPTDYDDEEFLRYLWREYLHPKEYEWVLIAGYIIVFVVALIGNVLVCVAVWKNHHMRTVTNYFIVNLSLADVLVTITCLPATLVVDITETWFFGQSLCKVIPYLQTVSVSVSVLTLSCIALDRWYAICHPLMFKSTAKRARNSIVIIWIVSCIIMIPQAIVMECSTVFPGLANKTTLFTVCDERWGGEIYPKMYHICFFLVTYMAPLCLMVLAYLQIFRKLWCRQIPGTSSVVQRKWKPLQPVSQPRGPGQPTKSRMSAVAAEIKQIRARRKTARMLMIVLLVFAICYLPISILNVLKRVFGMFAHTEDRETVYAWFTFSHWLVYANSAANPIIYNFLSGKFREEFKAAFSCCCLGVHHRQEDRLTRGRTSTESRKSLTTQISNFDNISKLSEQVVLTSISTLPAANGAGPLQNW

IC50 [1] | IC50 [2] | Structure (SMILES)
1000 nM |  | C[C@@H]1CC(F)(F)CN(C(=O)c2nn(C)cc2-c2ncc(F)cn2)[C@@H]1COc1cnc(C(F)(F)F)cn1
1000 nM |  | C[C@@H]1CC(F)(F)CN(C(=O)c2nn(C)cc2-c2ncc(F)cn2)[C@@H]1COc1ncc(C(F)(F)F)cc1F
8 nM | > 5000 nM | C[C@@H]1CC(F)(F)CN(C(=O)c2nn(C)cc2-c2ccccc2)[C@@H]1COc1ccc(C(F)(F)F)cn1
